Entries after “also recorded” stand apart in the source; their conditions may differ.
Columns and labels:
ADAR2 = target: T1, ADAR2 (Homo sapiens, UniProt P78563); assay: In vitro editing assay, ADAR2; assay type: biochemical; conditions: ADAR2 mediated A-to-I editing in vitro
T1 sequence (P78563 1-741): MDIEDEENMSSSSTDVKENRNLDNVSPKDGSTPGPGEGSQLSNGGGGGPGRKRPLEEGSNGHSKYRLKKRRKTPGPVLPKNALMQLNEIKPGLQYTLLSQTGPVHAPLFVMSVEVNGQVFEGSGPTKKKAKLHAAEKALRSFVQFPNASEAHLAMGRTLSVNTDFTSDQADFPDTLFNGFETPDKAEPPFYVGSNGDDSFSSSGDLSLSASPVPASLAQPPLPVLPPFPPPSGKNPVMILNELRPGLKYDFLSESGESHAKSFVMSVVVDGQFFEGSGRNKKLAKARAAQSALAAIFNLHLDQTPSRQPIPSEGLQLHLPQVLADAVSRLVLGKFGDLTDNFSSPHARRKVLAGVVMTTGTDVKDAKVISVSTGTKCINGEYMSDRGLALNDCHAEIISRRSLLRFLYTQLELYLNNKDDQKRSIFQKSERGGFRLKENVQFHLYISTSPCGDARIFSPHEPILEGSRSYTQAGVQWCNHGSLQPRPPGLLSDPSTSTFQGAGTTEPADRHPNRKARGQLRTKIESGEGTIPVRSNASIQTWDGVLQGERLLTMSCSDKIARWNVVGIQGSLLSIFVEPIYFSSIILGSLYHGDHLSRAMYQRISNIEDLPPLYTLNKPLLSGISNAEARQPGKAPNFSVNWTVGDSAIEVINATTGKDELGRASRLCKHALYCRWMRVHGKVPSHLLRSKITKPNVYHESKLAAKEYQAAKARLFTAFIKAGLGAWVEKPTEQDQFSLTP

YUMM1.7 cells = assay: Immunostaining (MAb J2) of unedited dsRNA fibers; assay type: cell-based, mouse; conditions: for Unedited dsRNA fiber structures in cells: immunostaining with MAb J2, YUMM1.7 cells
Text: FIGS. 7A-7C show analysis of ADAR1i-13 and analogs. […] IC50 values determined by dose-dependent in vitro editing assay are shown for ADAR1 inhibition positive compounds. […] Dumbbell-shaped dsRNA has been reported to form Z-RNA conformation and act as a strong IFN signaling activation triggers. ADAR1p150 mediated A-to-I editing suppresses Z-RNA structure transition and activation of IFN signaling.
It has been reported that the suppression ADAR1 editing activity results in binding of MDA5 to unedited dsRNAs, oligomerization of MDA5-dsRNA complexes, and formation of fiber-like structures (21, 44). These dsRNA fiber structures were detected in cells treated with ADAR1 inhibition active compounds, ADAR1i-13, ADAR1i-120, and ADAR1i-124, but not detected in cells treated with ADAR1 inhibition negative compounds (FIG. 7A).

[1] = test system: IMR90 normal fibroblast cells; assay: Cell killing / viability, IMR90; assay type: cell-based
Experimental: FIGS. 8A-8C show analysis of ADAR1i-124 effects in cancer cells. […] Viability was examined using the Apo Tox-Glo assay system. Control, 0.3% DMSO. Data: mean±SD (n=3). Significant differences identified by two-tailed Student's t-tests: *P<0.05, n.s., not significant. (FIG. 8B) Western blotting analysis of HeLa cells treated with ADAR1i-124 (10 μM).
FIGS. 9A-9C show dose-dependent killing of cancer cells and activation of IFN signaling. […] YUMM1.7 (FIG. 9B) and HGS2 cells (FIG. 9C) were treated with ADAR1i-124 at 10 μM (12 hrs). RNA samples were analyzed by qRT-PCR to monitor ISG expression levels. Data: mean±SD (n=3). Significant differences were identified by two-tailed Student's t-tests: ***P<0.001.
Dose-dependent selective killing of telomerase reactivated cancer cells was determined (FIG. 9A).

Row | Compound | ADAR2 inhibitory activity (ADAR2) | Unedited dsRNA fiber structures in cells (YUMM1.7 cells) | Killing of IMR90 cells [1] | RNase III sensitivity of induced dsRNA fibers (YUMM1.7 cells; RNase III treatment)
1 | N#Cc1ccc(NC(=O)c2sc3ccccc3c2Cl)cc1 [ADAR1i-13, 3-chloro-N-(4-cyanophenyl)-1-benzothiophene-2-carboxamide] | No ADAR2 inhibitory activity was detected; also recorded: did not inhibit ADAR2 mediated A-to-I editing in vitro | detected; also recorded: unedited dsRNA fibers induced | not ALT U2OS cells or IMR90 normal fibroblast cells | 
2 | N#Cc1ccccc1NC(=O)c1sc2ccccc2c1Cl [ADAR1i-120] | No ADAR2 inhibitory activity was detected | detected; also recorded: unedited dsRNA fibers induced | not ALT U2OS cells or IMR90 normal fibroblast cells | 
3 | N#Cc1ccc(NC(=O)c2c(Cl)c3ccccc3n2CO)cc1 [ADAR1i-124] | No ADAR2 inhibitory activity was detected; also recorded: did not inhibit ADAR2 mediated A-to-I editing in vitro; also recorded: No ADAR2 inhibition detected | detected; also recorded: unedited dsRNA fibers induced | not ALT U2OS cells or IMR90 normal fibroblast cells; also recorded: unaffected | abolished by RNase III treatment; also recorded: sensitive to RNase III treatment
